# In the supplement of paper PMC7661543:
# ± gives the standard deviation of the averaged measurements.
# Columns and labels:
# Experiment in all cases: relative cell number vs DMSO control (72 h) (% of DMSO); higher = less growth inhibition (more cells)
# Settings in all cases: sgRNA knockout: sgNT
# SKBR3 = tested on: SKBR3
# Experimental: (§1)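 QMAP-Seq: a pool of 5 breast cancer cell lines (ZR-75-1, SKBR3, HCC-38, MDA-MB-231, BT-20), each carrying 12 doxycycline-inducible Cas9 sgRNA perturbations (11 knockouts plus non-targeting sgNT), was treated with compounds for 72 h at four 10-fold doses (10 nM-10 uM or 1 nM-1 uM range). Barcodes were amplified and sequenced, and cell number was interpolated from 293T spike-in standard curves. The result is expressed as % of the median of DMSO wells. Two biological replicates.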
# HCC-38 = tested on: HCC-38
# Experimental: as §1
# BT-20 = tested on: BT-20
# Experimental: as §1
# MDA-MB-231 = tested on: MDA-MB-231
# Experimental: as §1
# ZR-75-1 = tested on: ZR-75-1
# Experimental: as §1
Compound,relative cell number (SKBR3; 10 nM),relative cell number (SKBR3; 100 nM),relative cell number (SKBR3; 1000 nM),relative cell number (SKBR3; 10000 nM),relative cell number (HCC-38; 10 nM),relative cell number (HCC-38; 100 nM),relative cell number (HCC-38; 1000 nM),relative cell number (HCC-38; 10000 nM),relative cell number (BT-20; 10 nM),relative cell number (BT-20; 100 nM),relative cell number (BT-20; 1000 nM),relative cell number (BT-20; 10000 nM),relative cell number (MDA-MB-231; 10 nM),relative cell number (MDA-MB-231; 100 nM),relative cell number (MDA-MB-231; 1000 nM),relative cell number (MDA-MB-231; 10000 nM),relative cell number (ZR-75-1; 10 nM),relative cell number (ZR-75-1; 100 nM),relative cell number (ZR-75-1; 1000 nM),relative cell number (ZR-75-1; 10000 nM)
CCOc1cc2ncc(C#N)c(Nc3ccc(OCc4ccccn4)c(Cl)c3)c2cc1NC(=O)/C=C/CN(C)C [Neratinib],92.7 ± 6.7,70.3 ± 1.5,27.1 ± 5.3,17.2 ± 0.58,85 ± 2.7,101 ± 7,95.9 ± 12,50 ± 3.4,86.8 ± 7.5,99.2 ± 16,79.7 ± 16,51.4 ± 2.7,98.3 ± 10,74.1 ± 4,91.24 ± 0.32,46.6 ± 1.1,100 ± 32,73.9 ± 1.6,70.7 ± 6,47.4 ± 0.48
O=C(Nc1ccc([N+](=O)[O-])cc1Cl)c1cc(Cl)ccc1O [Niclosamide],108 ± 7.6,83.6 ± 3.2,82.1 ± 19,59.8 ± 2.1,92.2 ± 13,92.62 ± 0.79,113 ± 7.2,46.5 ± 11,91.7 ± 20,109 ± 7,98.5 ± 3.8,55 ± 12,115 ± 21,119 ± 34,97.4 ± 20,37.7 ± 14,88.4 ± 14,104 ± 61,102 ± 80,50.2 ± 10
Cc1cn(-c2cc(NC(=O)c3ccc(C)c(Nc4nccc(-c5cccnc5)n4)c3)cc(C(F)(F)F)c2)cn1 [Nilotinib],79.5 ± 24,88.7 ± 0.9,98.3 ± 25,13.8 ± 12,93.4 ± 2.5,102 ± 16,98.8 ± 11,93.7 ± 30,99.6 ± 18,87.1 ± 14,94.2 ± 22,63.1 ± 6.3,80.9 ± 6.4,118 ± 19,88.1 ± 1.5,63.5 ± 28,75.2 ± 1.9,94.4 ± 29,107 ± 2.8,35.1 ± 20
O=[N+]([O-])c1ccc(O)c2ncccc12 [Nitroxoline],82.9 ± 23,91.1 ± 3.5,43.59 ± 0.14,40 ± 6.6,86.5 ± 3.6,88.83 ± 0.36,107 ± 14,45.9 ± 0.87,93.1 ± 19,87.9 ± 43,114 ± 13,56.1 ± 6.1,54.2 ± 9.2,103 ± 22,88.3 ± 10,37.7 ± 9.7,86.7 ± 6.9,94.1 ± 17,97.4 ± 51,33.4 ± 19
COc1cccc2cc(-c3nc([C@H]4CC[C@H](C(=O)O)CC4)n4ncnc(N)c34)[nH]c12 [OSI027],87.6 ± 25,116 ± 31,69.9 ± 14,27.8 ± 6.2,108 ± 20,107 ± 29,84.2 ± 1.9,31.2 ± 0.23,85.8 ± 7.3,113 ± 1.8,83.39 ± 0.24,52.5 ± 14,97.4 ± 8.9,128 ± 27,83.4 ± 29,58.9 ± 11,81.1 ± 21,94.9 ± 17,63.4 ± 24,25.4 ± 2
O=C(c1cc(Cc2n[nH]c(=O)c3ccccc23)ccc1F)N1CCN(C(=O)C2CC2)CC1 [Olaparib],87.7 ± 1.6,111 ± 9.3,85.4 ± 11,48.7 ± 9.5,93.4 ± 4.8,102 ± 2.2,88.6 ± 1.6,62.5 ± 0.89,103 ± 6,85.9 ± 12,73.2 ± 6.7,94 ± 7.7,87.3 ± 12,83.4 ± 1.6,93.9 ± 22,93.2 ± 31,78.3 ± 13,89.3 ± 28,64.1 ± 3.7,91.3 ± 17
